Measured values reported in PubChem BioAssay (NCI).
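Five concentrations, 48 hours, 96-well plates. GI50 marks 50% less growth. TGI denotes the concentration required for complete inhibition of growth.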

Key:
Test in all cases: NCI anticancer screen, dose series, 48 h
DLD-1 colon = tested on: DLD-1 colon
IGROV1 ovarian = tested on: IGROV1 ovarian
M19-MEL melanoma = tested on: M19-MEL melanoma
MALME-3M melanoma = tested on: MALME-3M melanoma
NCI-H460 lung = tested on: NCI-H460 lung
SK-MEL-28 melanoma = tested on: SK-MEL-28 melanoma
EKVX NSCLC = tested on: EKVX NSCLC
SF-295 CNS = tested on: SF-295 CNS
SF-539 CNS = tested on: SF-539 CNS
MDA-MB-435 = tested on: MDA-MB-435

| Structure (SMILES) | TGI (DLD-1 colon) [µM] | TGI (IGROV1 ovarian) [µM] | TGI (M19-MEL melanoma) [µM] | TGI (MALME-3M melanoma) [µM] | TGI (NCI-H460 lung) [µM] | TGI (SK-MEL-28 melanoma) [µM] | TGI (EKVX NSCLC) [µM] | TGI (SF-295 CNS) [µM] | TGI (SF-539 CNS) [µM] | TGI (MDA-MB-435) [µM] | GI50 (EKVX NSCLC) [µM] | GI50 (IGROV1 ovarian) [µM] | GI50 (MALME-3M melanoma) [µM] | GI50 (MDA-MB-435) [µM] | GI50 (NCI-H460 lung) [µM] | GI50 (SF-295 CNS) [µM] | GI50 (SF-539 CNS) [µM] | GI50 (SK-MEL-28 melanoma) [µM] |
| --- | --- | --- | --- | --- | --- | --- | --- | --- | --- | --- | --- | --- | --- | --- | --- | --- | --- | --- |
| CCN(CC)CCCC(C)Nc1c(Sc2cnc3cc(Cl)ccc3c2NC(C)CCCN(CC)CC)cnc2cc(Cl)ccc12 (centres undefined) | 3.84 | 3.51 | 3.02 | 3.71 | 3.23 | 3.34 |  |  |  |  |  |  |  |  |  |  |  |  |
| CCCCc1c2c(nc3c1CCc1cc4cc5c(nc4nc1-3)-c1nc3c(c(CCCC)c1CC5)CCC/C3=C\c1ccccc1)/C(=C/c1ccccc1)CCC2 | > 100 | > 100 |  | > 100 | > 100 | > 100 | > 100 | > 100 | > 100 |  |  |  |  |  |  |  |  |  |
| O=C(NCC(=O)N1CCOC1=O)OCc1ccccc1 | > 100 | > 100 | > 100 |  | > 100 | > 100 | > 100 | > 100 | > 100 |  |  |  |  |  |  |  |  |  |
| Cc1cc(C)nc(NS(=O)(=O)c2ccc(NC(=O)c3cccn4c(=O)c5ccccc5nc34)cc2)n1 | > 100 | > 100 | > 100 |  | > 100 | > 100 | 99.7 | > 100 | > 100 |  |  |  |  |  |  |  |  |  |
| COCCOCOC(C)(C)[C@H](CCOC(C)=O)O[Si](c1ccccc1)(c1ccccc1)C(C)(C)C | > 100 | > 100 | 43.2 | 55.3 | 24.1 | > 100 | > 100 | 55.5 |  |  |  |  |  |  |  |  |  |  |
| CC1(C)CC2=C(Sc3ccccc3N2)C(=O)C1C(=O)C(=O)Nc1cc(Cl)ccc1Cl (centres undefined) |  | > 100 |  | > 100 | 28.1 | > 100 | > 100 | > 100 | > 100 | > 100 |  |  |  |  |  |  |  |  |
| COc1cc(/C=C\c2ccncc2)cc(OC)c1OC | > 100 | > 100 |  | > 100 | > 100 | > 100 | > 100 | > 100 | > 100 |  |  |  |  |  |  |  |  |  |
| CCOC(=O)C1=C(C)N2C(=NC3=C(CCC/C3=C\c3ccc(Cl)cc3)C2c2ccc(Cl)cc2)S1 (centres undefined) |  | 10.1 |  | 35.5 | 19.4 | 11.4 | 46.8 | 8.76 | > 100 | 14.2 | 3.37 | 3.11 | 11.3 | 2.93 | 4.04 | 2.85 | 3.88 | 3.07 |
| Cc1c2ccncc2c(C)c2c1c1cc(CO)ccc1n2C |  | 1.76 |  | 2.51 | 1.1 | 6.5 | 5.98 | 2.5 | 4.2 | 3.74 | 0.719 | 0.214 | 0.622 | 0.467 | 0.243 | 0.383 | 0.73 | 1.82 |
| Nc1n[nH]c(N)c1N=Nc1ccc(O)cc1 |  | 81.4 |  | 60.3 | 97.2 | 63.8 | 67.8 | 82.5 | 36.4 | 59.4 | 22 | 20.6 | 24.6 | 17.1 | 25.1 | 23.3 | 13.1 | 22.1 |
| C=C1C(=O)O[C@H]2[C@H]1CC/C(CNC(=O)/C=C/c1ccccc1)=C\CC[C@@]1(C)O[C@@H]21 |  | 5.01 |  | 3.29 | 5.05 | 4.18 | 4.51 | 18.7 | 2.37 | 6.41 | 1.65 | 1.7 | 1.45 | 1.35 | 2.18 | 5.25 | 0.964 | 1.48 |
| O=C(CCc1nc(=S)[nH][nH]1)Nc1cccc(C(F)(F)F)c1 | > 100 | > 100 |  | > 100 | > 100 | > 100 | > 100 | > 100 | > 100 |  |  |  |  |  |  |  |  |  |
| COc1cc2c(c(OC)c1OC)-c1c(cc3c(c1OC)OCO3)CC(C)C(C)(O)C2OC(=O)c1ccccc1 (centres undefined) |  | > 100 |  | > 100 | > 100 | > 100 | > 100 | > 100 | > 100 | > 100 |  |  |  |  |  |  |  |  |
| N/C(=N\c1nc2ccccc2s1)NC(=NC1CCCCC1)NC1CCCCC1 |  | 2.95 |  | 3.13 | 3.43 | 3.24 | 2.93 | 3.03 | 3.12 | 2.8 | 1.51 | 1.46 | 1.52 | 1.44 | 1.77 | 1.64 | 1.66 | 1.75 |
| CC1=C(Cl)C[C@@H](/C(C)=C\Cl)O[C@@]1(O)C(Br)Br |  | > 100 |  | 79.8 | > 100 | > 100 | 80.3 | > 100 | > 100 | > 100 |  |  |  |  |  |  |  |  |
| COc1ccc2c(c1)C(=O)c1c-2c(N2CCNCC2)nc2ccccc12 |  | 8.7 |  | 4.34 | 1.98 | 3.46 | 17.5 | 27.4 | 12.7 | 17.9 | 4.65 | 2.37 | 1.79 | 4.93 | 0.614 | 10.4 | 3.8 | 1.85 |
